Reference: patent US20220146526A1, “METHOD FOR EVALUATING SAMPLE, ANALYSIS METHOD, METHOD FOR DETECTING DEGRADED SAMPLE, MARKER FOR DETECTING DEGRADED BLOOD PLASMA SAMPLE, AND MARKER FOR DETECTING DEGRADED SERUM SAMPLE” (SHIMADZU CORPORATION, priority 2019, published 2022)
Values joined by “and” are separate entries in the source; they are usually repeats but may differ in a detail not shown here. Identical values can stand only once.

Assays:
Type in all cases: physicochemical, human
[1] = GC/MS of blood plasma sample: time from blood collection to centrifugation (Table A); details: for Rate of increase or decrease: detection intensity relative to 1 at 15 minutes; for Rate of increase or decrease / Increase or decrease: blood collection to centrifugation; for Increase or decrease: detection intensity
Experimental: (§1) At room temperature, 5 mL of blood from a healthy subject was taken into a blood-collecting vessel containing EDTA, and the blood-collecting vessel was inverted for mixing, then cooled, and allowed to stand at 4° C. Here, in order to investigate how the detection intensity of molecules contained in the sample was affected in a case where the time to cooling was set to 5 minutes or more as compared to that in a case where the time to cooling was set to 1 minute or less, preparations were performed under both the former condition and the latter condition. After standing, the blood sample was subjected to centrifugation under a condition of 4° C., 3000 rpm, and 15 minutes. […] After centrifugation, the blood-collecting vessel was left to stand at room temperature for 30 minutes, and the blood plasma was isolated during this 30 minutes. The obtained blood plasma sample was frozen and stored. Here, in order to investigate how the detection intensity of molecules contained in the sample was affected in cases where freezing and thawing was performed 4 times, 6 times, and 10 times after freezing as compared to that in a case where freezing and thawing was performed 2 times after freezing, freezing and thawing was performed under the respective conditions of 2, 4, 6, and 10 times.
(§2) Frozen blood plasma samples and serum samples were subjected to GC/MS or LC/MS. In GC/MS, the blood plasma samples and serum samples were subjected to methoxymation and trimethylsilylation and then introduced to GC-MS.
(§3) GC/MS was conducted using GCMS·TQ8040 (Shimadzu Corporation) that was a GC·MS equipped with AOC·20i (Shimadzu Corporation) as an autosampler.
(§4) Column: BPX5 (inner diameter of 0.25 mm, length of 30 m, and film thickness of 0.25 μm) (SGE)
(§5) Column temperature: maintained at 60° C. for 2 minutes, then raised at 15° C./min, and maintained at 330° C. for 3 minutes.
(§6) Inlet temperature: 250° C.
(§7) Carrier gas control mode: constant linear velocity of 39.0 cm/sec
(§8) Sample introduction method: split (split ratio of 30:1) Injection volume: 1 μL
(§9) Ionization method: electron ionization
(§10) Ionization current: 60 μA
(§11) Interface temperature: 280° C.
(§12) Ion source temperature: 200° C.
(§13) Mode: multiple reaction monitoring (MRM)
The rate of increase or decrease in Table A is the value of detection intensity relative to 1 that is the detection intensity in a case where the time from blood collection to centrifugation is set to 15 minutes.

[2] = GC/MS of serum sample: number of times of freezing and thawing (Table I); design: key to Rate of increase or decrease / Rate of increase or decrease (first value, increase): detection intensity relative to 2 freeze-thaw cycles = 1; details: for Rate of increase or decrease: detection intensity relative to 1 at 2 times; for Number of times when compound is affected: detection intensity changed by 30% or more vs 2 times of freezing and thawing
Experimental: (§14) After standing, the blood sample was subjected to centrifugation under a condition of room temperature, 3500 rpm, and 5 minutes. […] After centrifugation, the blood-collecting vessel was left to stand at room temperature, and the serum was isolated during this time. Here, in order to investigate how the detection intensity of molecules contained in the sample was affected in cases where the time during which the blood-collecting vessel was left at room temperature was set to 1 hour and 6 hours as compared to that in a case where the time was set to 30 minutes, preparations were performed under the respective conditions of 30 minutes, 1 hour, and 6 hours. The obtained serum sample was frozen and stored. Here, in order to investigate how the detection intensity of molecules contained in the sample was affected in cases where freezing and thawing was performed 4 times, 6 times, and 10 times after freezing as compared to that in a case where freezing and thawing was performed 2 times after freezing, freezing and thawing was performed under the respective conditions of 2, 4, 6, and 10 times.
as §2, §3, §4, §5, §6, §7, §8, §9, §10, §11, §12, §13
The rate of increase or decrease in Table I is the value of detection intensity relative to 1 that is the detection intensity in a case where the number of times of freezing and thawing is set to 2 times.

[3] = GC/MS of serum sample: time from centrifugation to isolation (Table H); design: key to Rate of increase or decrease / Rate of increase or decrease (first value, increase): detection intensity relative to 1 at 30 min centrifugation-to-isolation; details: for Rate of increase or decrease: detection intensity relative to 1 at 30 minutes; for Increase or decrease: detection intensity
Experimental: as §14, §2, §3, §4, §5, §6, §7, §8, §9, §10, §11, §12, §13
The rate of increase or decrease in Table H is the value of detection intensity relative to 1 that is the detection intensity in a case where the time from centrifugation to isolation is set to 30 minutes.

[4] = LC/MS of serum sample: number of times of freezing and thawing (Table M); design: key to Rate of increase or decrease: detection intensity relative to 1 at 2 freeze-thaw cycles; details: for Rate of increase or decrease: 6 times of freezing and thawing; for Number of times when compound is affected / Increase or decrease: serum sample, LC/MS; for Number of times when compound is affected: detection intensity changed by 30% or more vs 2 times of freezing and thawing; for Increase or decrease: detection intensity vs 2 times of freezing and thawing
Experimental: as §14, §2
(§15) Analysis column: Discovery HS F5-3 (inner diameter of 2.1 mm, length of 150 mm, film thickness of 3 μm) (Sigma-Aldrich)
(§16) Column temperature: 40° C.
(§17) (A) 0.1% formic acid (dissolved in water)
(§18) (B) 0.1% formic acid (dissolved in acetonitrile)
(§19) Flow velocity: 0.25 mL/min
(§20) Ionization method: electrospray
(§21) Temperature: • Desolvation Line (DL) temperature: 250° C. • Heat block temperature: 400° C. • Interface temperature: 300° C.
(§22) Gas flow rate: • Nebulizer gas flow rate: 3.0 L/min • Drying gas flow rate: 10.0 L/min • Heating gas flow rate: 10.0 L/min
as §13
The rate of increase or decrease in Table M is the value of detection intensity relative to 1 that is the detection intensity in a case where the number of times of freezing and thawing is set to 2 times.

[5] = LC/MS of blood plasma sample: time from blood collection to centrifugation (Table D); details: for Increase or decrease: detection intensity, blood collection to centrifugation, after 12 hours vs 15 minutes; for Rate of increase or decrease (second value, decrease) / Rate of increase or decrease (first value, increase): different from individual to individual, relative to 1 at 15 minutes, collection to centrifugation, after 12 hours; for Rate of increase or decrease (second value, decrease): individuals with decrease; for Rate of increase or decrease (first value, increase): individuals with increase
Experimental: as §1, §2, §15, §16, §17, §18, §19, §20, §21, §22, §13
The rate of increase or decrease in Table D is the value of detection intensity relative to 1 that is the detection intensity in a case where the time from blood collection to centrifugation is set to 15 minutes.

[6] = GC/MS of serum sample: time from blood collection to centrifugation (Table G); details: blood collection to centrifugation; for Rate of increase or decrease: detection intensity relative to 1 at 15 minutes; for Increase or decrease: detection intensity
Experimental: as §14, §2, §3, §4, §5, §6, §7, §8, §9, §10, §11, §12, §13
The rate of increase or decrease in Table G is the value of detection intensity relative to 1 that is the detection intensity in a case where the time from blood collection to centrifugation is set to 15 minutes.

[7] = GC/MS of blood plasma sample: number of times of freezing and thawing (Table C); details: for Rate of increase or decrease: detection intensity relative to 1 at 2 times, freezing and thawing 4 times; for Increase or decrease: detection intensity, freezing and thawing 4 times vs 2 times
Experimental: as §1, §2, §3, §4, §5, §6, §7, §8, §9, §10, §11, §12, §13
The rate of increase or decrease in Table C is the value of detection intensity relative to 1 that is the detection intensity in a case where the number of times of freezing and thawing is set to 2 times.

[8] = serum, GC/MS, freezing and thawing 10 times
[9] = detection intensity, serum, GC/MS, freezing and thawing 10 times vs 2 times
[10] = serum sample, GC/MS, detection intensity vs 2 times of freezing and thawing

In the case of `CC(CN)C(=O)O` (stereo not drawn) [3-Aminoisobutyric acid], the “Rate of increase or decrease” value ([1]; after 12 hours) is reported as 1.44, the Increase or decrease ([1]; after 12 hours vs 15 minutes) is reported as “Increase” and the “Rate of increase or decrease” value [2, 8] is reported as 1.47. For the same compound, the Increase or decrease [2, 9] was “Increase”.

In the case of `CCC(N)C(=O)O` (stereo not drawn) [2-Aminobutyric acid], the “Rate of increase or decrease” value ([3]; after 6 hours) is reported as 1.60, the Increase or decrease ([3]; after 6 hours vs 30 minutes) is reported as “Increase” and the “Rate of increase or decrease” value ([4]; relative to 1 at 2 times, different from individual to individual, first value (increase)) is reported as 1.31. For the same compound, the “Rate of increase or decrease” value ([4]; relative to 1 at 2 times, different from individual to individual, second value (decrease)) was 0.61, the “Number of times when compound is affected” value (shortened to “Number of times”) [4] was 6 times and the Increase or decrease [4] was “Different from individual”. For the same compound, the Increase or decrease [5] was “Different from individual”, the “Rate of increase or decrease (second value, decrease)” value [5] was 0.65 and the “Rate of increase or decrease (first value, increase)” value [5] was 1.53. The “Rate of increase or decrease” value [2, 8] was 2.63 and the Increase or decrease [2, 9] was “Increase”.

With `CCCCC/C=C\C/C=C\C/C=C\C/C=C\CCCC(=O)O` [Arachidonic acid] the “Rate of increase or decrease” value ([1]; after 4 hours) was 1.56, the Increase or decrease ([1]; after 4 hours vs 15 minutes) was “Increase” and the “Rate of increase or decrease” value [2, 8] was 1.52. The Increase or decrease [2, 9] was “Increase”.

With `O=C(CO)[C@H](O)[C@@H](O)[C@H](O)CO` [Sorbose] the Increase or decrease ([1]; after 4 hours vs 15 minutes) was “Different from individual”, the “Rate of increase or decrease (second value, decrease)” value ([1]; different from individual to individual, individuals with decrease, relative to 1 at 15 minutes, collection to centrifugation, after 4 hours) was 0.67 and the “Rate of increase or decrease (first value, increase)” value ([1]; different from individual to individual, individuals with increase, relative to 1 at 15 minutes, collection to centrifugation, after 4 hours) was 2.10. For the same compound, the “Rate of increase or decrease” value ([6]; after 4 hours) was 1.53, the Increase or decrease ([6]; after 4 hours vs 15 minutes) was “Increase” and the “Rate of increase or decrease” value ([2]; 10 times of freezing and thawing) was 0.68. For the same compound, the “Number of times” value ([2]; serum sample, GC/MS) was 10 times and the Increase or decrease [2, 10] was “Decrease”.

With `O=C(O)C=C(CC(=O)O)C(=O)O` [Aconitic acid] the “Rate of increase or decrease” value ([1]; after 4 hours) was 0.41, the Increase or decrease ([1]; after 4 hours vs 15 minutes) was “Decrease” and the “Rate of increase or decrease” value ([3]; after 1 hour) was 0.04. The Increase or decrease ([3]; after 1 hour vs 30 minutes) was “Decrease”, the “Rate of increase or decrease” value ([6]; after 4 hours) was 1.52 and the Increase or decrease ([6]; after 4 hours vs 15 minutes) was “Increase”.

In the case of `CCCCCC(=O)O` [Cabroic acid], the “Number of times” value ([2]; serum sample, GC/MS) is reported as 10 times, the Increase or decrease [2, 10] is reported as “Increase” and the “Rate of increase or decrease” value [7] is reported as 1.58. The Increase or decrease [7] was “Increase”.

For `O=C[C@H](O)[C@@H](O)[C@@H](O)[C@H](O)C(=O)O` [Galacturonic acid], the “Rate of increase or decrease” value ([3]; after 1 hour) was 1.87, the Increase or decrease ([3]; after 1 hour vs 30 minutes) was “Increase” and the “Rate of increase or decrease” value ([6]; after 8 hours) was 0.60 and 0.64. For the same compound, the Increase or decrease ([6]; after 8 hours vs 15 minutes) was “Decrease”, the “Rate of increase or decrease” value [7] was 1.44 and the Increase or decrease [7] was “Increase”.

For `N[C@@H](Cc1c[nH]c2ccccc12)C(=O)O` [Tryptophan], the “Rate of increase or decrease” value ([4]; detection intensity relative to 1 at 2 times) was 0.66, the “Number of times” value [4] was 6 times and the Increase or decrease [4] was “Decrease”. The Increase or decrease [5] was “Different from individual”, the “Rate of increase or decrease (second value, decrease)” value [5] was 0.66 and the “Rate of increase or decrease (first value, increase)” value [5] was 1.62.

With `CCCCCCCCCCCCCCCC(=O)O` [Palmitic acid] the “Rate of increase or decrease” value ([1]; after 12 hours) was 4.05 and the Increase or decrease ([1]; after 12 hours vs 15 minutes) was “Increase”.
